Entries after “also recorded” stand apart in the source; their conditions may differ. Where two headings read alike, the source gives them in different places.

One series addresses Human DPP4 (Homo sapiens (Human), UniProt P27487). Nature of the series: DPP4 activity assay (Sigma-Aldrich MAK088 kit). Particulars: Table 4; read-out: DPPIV IC50. It counts as biochemical. As for the experimental part: DPP4 activity assay. Human DPP4 activity assay data were obtained using a DPP4 Activity Assay Kit (Sigma-Aldrich, MAK088) according to the manufacturer's instructions. Briefly, 10 μL of DPP4 Assay Buffer was transferred per well in low volume 384-well plates before transferring 10 μL of diluted compound dissolved in DPP4 assay buffer. 5 μL of Master Reaction Mix containing a fluorescent substrate that becomes fluorescent upon cleavage by the enzyme. Fluorescence intensity measurements were recorded at 1-minute time intervals over the course of 20 minutes using an Envision Multimode Plate Reader (PerkinElmer).

The test system of series [1] is bleomycin-induced lung fibrosis. Nature of the series: Bleomycin-induced lung fibrosis model. In kind it is in vivo, mouse. Particulars: 0.5 mg/kg IT once every four days, versus vehicle. As for the experimental part:
Experimental Methods of Bleomycin Model Bleomycin (Hospira) was used to induce lung fibrosis in mice. Body weight matched (24 gram˜28 gram) male C57BL/6J mice at 10-12 weeks of age were selected to use in bleomycin model. For orally delivered DPP4 inhibitors. compounds were dissolved in PBS resulting in clear solution. […] For intratracheally delivered DPP4 inhibitors, compounds were dissolved in PBS resulting in clear solution. […] 0.5 U/kg Bleomycin or PBS in sham group was intratracheally injection into mice lung at day 0. […] All animals were sacrificed at day 20 after bleomycin injection. Bronchoalveolar lavage fluid (BALF) was retrieved using standard method. 1 ml 4% formalin was used to inflate the lung, which was subsequently fixed in 4% formalin for 24 hours and preserved in 70% EtOH until histological process. For readouts, body weight was measured every day; total protein content in BALF was quantified using BCA assay; pulmonary fibrosis was assessed using Masson's trichrome staining.

A short description of series [2]: IT pharmacokinetics of dutogliptin (1) and dutogliptin boronate (15). It counts as in vivo, mouse. As to conditions: for Plasma concentration of dutogliptin, individual animals / Bronchoalveolar lavage fluids concentration of dutogliptin, individual animals / Lung concentration of dutogliptin, individual animals: mice, 1.8 mg/kg IT dutogliptin boronate (cpd 15). As for the experimental part:
Like other […]. Dutogliptin (1) dosed IT in mice with PBS solution quickly cleared in lung (<24h. Table 8A). […] The parent drug dutogliptin was detected in plasma and lung. […] The drug was retained in the lung for over 48 h. The data clearly illustrated the unexpected lung retention ability of boronate prodrug 15.

For another series, the system named is Primary human AEC2s. Nature of the series: AEC2 proliferation assay (Ki67 high content imaging). It counts as cell-based. As for the experimental part: To identify small molecules capable of proliferating AEC2s, as disclosed herein, we first established a culture system with primary human small airway epithelial cells (SAECs) from a commercial source.
AEC2 proliferation assay. Primary human AEC2s were plated at a density of 1,500 cells per well in black 384-well plates (Greiner) coated with 10 ug/mL. Laminin (Life Technologies) in 50 μL of Small Airway Epithelial Cell Growth Medium (Lonza) without EGF, retinoic acid and with 5% BPE. 100 nL of compound dissolved in DMSO was then delivered using a Biomek FX instrument (Beckman Coulter) fitted with a pintool head (V&P Scientific).

Series [3] concerns human pulmonary fibroblasts. Kind of series: Pulmonary fibroblast counter-assay. In kind it is cell-based. As to conditions: at concentrations that promoted AEC2 proliferation.
The test system of a further series is alveolar epithelium. As to conditions: Stone et al., Diab et al.; cited from earlier work.
[4] abbreviates: Homo sapiens, Table 4, promotion of AEC2 proliferation, read-out: AEC2 EC50.
The mark [5] stands for this setting: Homo sapiens, Table 5, read-out: AEC2 proliferation.

Sequence of Human DPP4 (P27487 whole entry): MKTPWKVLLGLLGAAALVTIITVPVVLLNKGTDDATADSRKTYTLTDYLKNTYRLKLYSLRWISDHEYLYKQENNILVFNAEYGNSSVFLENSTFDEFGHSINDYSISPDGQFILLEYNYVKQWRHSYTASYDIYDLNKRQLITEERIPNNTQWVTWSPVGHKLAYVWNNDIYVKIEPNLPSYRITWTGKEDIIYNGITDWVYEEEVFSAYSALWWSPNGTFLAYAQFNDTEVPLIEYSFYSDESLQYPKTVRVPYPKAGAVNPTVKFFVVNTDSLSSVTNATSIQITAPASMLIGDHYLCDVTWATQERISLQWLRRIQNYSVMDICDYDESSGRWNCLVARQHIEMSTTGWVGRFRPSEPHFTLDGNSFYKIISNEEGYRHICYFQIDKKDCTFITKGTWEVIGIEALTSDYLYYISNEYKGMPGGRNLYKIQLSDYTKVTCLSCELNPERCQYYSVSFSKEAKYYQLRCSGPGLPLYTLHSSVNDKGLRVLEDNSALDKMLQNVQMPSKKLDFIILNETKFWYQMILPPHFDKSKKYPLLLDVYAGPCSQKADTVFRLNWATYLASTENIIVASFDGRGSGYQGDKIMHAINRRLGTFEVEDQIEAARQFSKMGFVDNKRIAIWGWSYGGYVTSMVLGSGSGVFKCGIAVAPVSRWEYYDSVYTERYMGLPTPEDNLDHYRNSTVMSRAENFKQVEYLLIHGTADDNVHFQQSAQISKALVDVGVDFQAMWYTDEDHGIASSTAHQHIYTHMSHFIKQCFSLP

Take `CCOC(=O)C12CCC(NCC(=O)N3C[C@@H](F)C[C@H]3C#N)(CC1)CC2` [Cpd 2, ethyl 4-((2-((2S,4S)-2-cyano-4-fluoropyrrolidin-1-yl)-2-oxoethyl)amino)bicyclo[2.2.2]octane-1-carboxylate]: the half-maximal inhibitory concentration (IC50) at Human DPP4 came out at 2.2 nM.

Consider `CC#CCn1c(N2CCC[C@@H](N)C2)cc(=O)n(Cc2cccc(C(=O)OC)c2)c1=O` [Cpd 25, methyl (R)-3-((4-(3-aminopiperidin-1-yl)-3-(but-2-yn-1-yl)-2,6-dioxo-3,6-dihydropyrimidin-1(2H)-yl)methyl)benzoate], for which, at Human DPP4, the IC50 was determined as 6 nM.

With `CC1(C)[C@@H]2C[C@H]3OB([C@@H]4CCCN4C(=O)CN[C@@H]4CCNC4)O[C@@]3(C)[C@H]1C2` [Cpd 15, 2-(((R)-pyrrolidin-3-yl)amino)-1-((R)-2-((3aS,4S,6S,7aR)-3a,5,5-trimethylhexahydro-4,6-methanobenzo[d][1,3,2]dioxaborol-2-yl)pyrrolidin-1-yl)ethan-1-one], in series [1], the BALF protein level result is “reduced”. The “plasma and lung levels of the boronate itself” value in series [2] (IT dosing, data not shown) is “very low and absent after 0.25 h”. Moreover, the “Plasma concentration of dutogliptin, individual animals” value in series [2] (7.00 h), in series [2] (24.0 h), in series [2] (48.0 h), in series [2] (96.0 h) and in series [2] (168 h) was “BQL” in each case. Further, the “Bronchoalveolar lavage fluids concentration of dutogliptin, individual animals” value in series [2] (48.0 h), in series [2] (96.0 h) and in series [2] (168 h) was “BQL” each time. The “Lung concentration of dutogliptin, individual animals” value in series [2] (48.0 h), in series [2] (96.0 h) and in series [2] (168 h) was “BQL” in each case. In series [2] (mouse IT pharmacokinetic study), the “conversion of the boronate to the active drug” value was “convert to the active drug dutogliptin in both plasma and lung”. Also, the “lung exposure of dutogliptin after IT boronate versus IT dutogliptin itself” value in series [2] (mouse, in vivo) is on record as “significantly higher; also recorded: much higher”.

With `CCc1cc(/C(C)=N/OCc2ccc(C3CCCCC3)c(C(F)(F)F)c2)ccc1CN1CC(C(=O)O)C1` [siponimod], the EC50 in the series with Primary human AEC2s (Homo sapiens, FIG. 1B, 1C, read-out: EC50, AEC2 proliferation (ReFRAME screen hits)) is approximately 100 nM. For the same compound, the “total number, percent Ki67 positivity, or myofibroblast differentiation status of pulmonary fibroblasts” value in series [3] is given as “did not increase”.

In the case of `N#Cc1ccc(NCCNCC(=O)N2CCC[C@H]2C#N)nc1` [NVP-728], the EC50 with Primary human AEC2s (FIG. 1B, 1C, read-out: EC50, AEC2 proliferation (ReFRAME screen hits)) is approximately 500 nM. Besides, the “total number, percent Ki67 positivity, or myofibroblast differentiation status of pulmonary fibroblasts” value in series [3] is “did not increase”.

Regarding `COC(=O)C12CCC(NCC(=O)N3C[C@@H](F)C[C@H]3C#N)(CC1)CC2` [Cpd 17, methyl 4-((2-((2S,4S)-2-cyano-4-fluoropyrrolidin-1-yl)-2-oxoethyl)amino)bicyclo[2.2.2]octane-1-carboxylate], the 50% inhibitory concentration (IC50) on Human DPP4 came out at 1 nM.

Consider `Cn1c(=O)cc(N2CCC[C@@H](N)C2)n(Cc2ccccc2C#N)c1=O` [Cpd 7, (R)-2-((6-(3-aminopiperidin-1-yl)-3-methyl-2,4-dioxo-3,4-dihydropyrimidin-1(2H)-yl)methyl)benzonitrile], for which the EC50 in the series on Primary human AEC2s (setting [4]) and in the series on Primary human AEC2s (setting [5]) was 110 nM throughout.

With `N#C[C@@H]1CCCN1C(=O)CNC12CC3C[C@@H](C1)C[C@@](O)(C3)C2` [Cpd 3, (2S)-1-(((1S,3R,5S)-3-hydroxyadamantan-1-yl)glycyl)pyrrolidine-2-carbonitrile], the EC50 in the series with Primary human AEC2s (setting [4]) and in the series on Primary human AEC2s (setting [5]) was 160 nM in each case.

Take `CS(=O)(=O)n1cc2c(n1)CN([C@H]1CO[C@H](c3cc(F)ccc3F)[C@@H](N)C1)C2` [Cpd 9, (2R,3S,5R)-2-(2,5-difluorophenyl)-5-(2-(methylsulfonyl)-2,6-dihydropyrrolo[3,4-c]pyrazol-5(4H)-yl)tetrahydro-2H-pyran-3-amine]: the EC50 in the series on Primary human AEC2s (setting [4]) and in the series on Primary human AEC2s (setting [5]) was 43 nM in each case.

Turning to `CC(C)Oc1ccc(-c2nc(-c3cccc4c3CC[C@@H]4NCCO)no2)cc1C#N` [Ozanimod], the “AEC2 proliferation, result in words” value in the series on Primary human AEC2s is recorded as “active”.

Take `Cn1c(=O)cc(N2CCC[C@@H](N)C2)n(Cc2cc(F)ccc2C#N)c1=O` [Cpd 10, (R)-2-((6-(3-aminopiperidin-1-yl)-3-methyl-2,4-dioxo-3,4-dihydropyrimidin-1(2H)-yl)methyl)-4-fluorobenzonitrile]: the EC50 with Primary human AEC2s (setting [4]) and in the series on Primary human AEC2s (setting [5]) was 67 nM in each case.

Take `N#C[C@@H]1CCCN1C(=O)CNC12CC3C[C@H](CC(N)(C3)C1)C2` [Cpd 18, (2S)-1-(((1S,3R,5R)-3-aminoadamantan-1-yl)glycyl)pyrrolidine-2-carbonitrile]: the IC50 at Human DPP4 was determined as 38 nM.

Turning to `CCCCCCCCc1ccc(CCC(N)(CO)CO)cc1` [FTY-720], in the series on Primary human AEC2s, the “AEC2 proliferation, result in words” value is “active”. The “apoptosis and inflammatory cytokine release in alveolar epithelium” value with alveolar epithelium was “inhibited apoptosis and inflammatory cytokine release”.

With `N[C@@H](CC(=O)N1CCn2c(C(F)(F)F)nc(C(=O)O)c2C1)Cc1cc(F)c(F)cc1F` [Cpd 26, (R)-7-(3-amino-4-(2,4,5-trifluorophenyl)butanoyl)-3-(trifluoromethyl)-5,6,7,8-tetrahydroimidazo[1,5-a]pyrazine-1-carboxylic acid], the IC50 at Human DPP4 came to 0.8 nM.

Take `Cc1cc2ncc(C(=O)NCC(C)(C)NCC(=O)N3CCC[C@H]3C#N)cn2n1` [Cpd 12, (S)-N-(2-((2-(2-cyanopyrrolidin-1-yl)-2-oxoethyl)amino)-2-methylpropyl)-2-methylpyrazolo[1,5-a]pyrimidine-6-carboxamide]: the EC50 in the series on Primary human AEC2s (setting [4]) and with Primary human AEC2s (setting [5]) was 110 nM each time.

For the compound `N[C@@H](CC(=O)N1CCc2c(nc(C(F)(F)F)nc2C(F)(F)F)C1)CN1CC(F)(F)CCC1=O` [Cpd 11, (S)-1-(2-amino-4-(2,4-bis(trifluoromethyl)-5,8-dihydropyrido[3,4-d]pyrimidin-7(6H)-yl)-4-oxobutyl)-5,5-difluoropiperidin-2-one], the EC50 with Primary human AEC2s (setting [4]) and with Primary human AEC2s (setting [5]) was 220 nM throughout.

In the case of `FC(F)(F)c1cccc(-c2noc(-c3cc(-c4ccccc4)c(C(F)(F)F)s3)n2)c1` [SEW-2871], the “AEC2 proliferation, result in words” value in the series with Primary human AEC2s is “active”. Also, the “apoptosis and inflammatory cytokine release in alveolar epithelium” value in the series with alveolar epithelium is “inhibited apoptosis and inflammatory cytokine release”.

Regarding `N#C[C@@H]1C[C@H](F)CN1C(=O)CNC12CCC(C(=O)O)(CC1)CC2` [Cpd 16, 4-((2-((2S,4S)-2-cyano-4-fluoropyrrolidin-1-yl)-2-oxoethyl)amino)bicyclo[2.2.2]octane-1-carboxylic acid], at Human DPP4, the IC50 was 1.2 nM.

The record behind these values is patent publication US20240115577A1, “SMALL MOLECULE REGULATORS OF ALVEOLAR TYPE 2 CELL PROLIFERATION FOR THE TREATMENT OF PULMONARY DISEASES” (THE SCRIPPS RESEARCH INSTITUTE, priority 2021, published 2024).
